Reference: the NIST ThermoML archive (doi:10.1016/j.jct.2004.06.002)
Numbers after ± are expanded uncertainties.

Tests used:
[1] = Crystal
[2] = Molar enthalpy of transition or fusion; conditions: Crystal
[3] = molar heat capacity at constant pressure; conditions: 101.33 kPa

CCCCCCCCCCCC(=O)O.Cc1cc(C)nc(Nc2ccccc2)n1 [4,6-dimethyl-N-phenylpyrimidin-2-amine dodecanoate]
Conditions | Molar enthalpy of transition or fusion [kcal/mol] | Triple point temperature [K]
[1] | – | 321.52 ± 0.12
[2] | 16.07 ± 0.0263 | –

[3]
Conditions | molar heat capacity at constant pressure [J/K/mol]
78.4 K, Crystal | 214.56 ± 2.3
80.59 K, Crystal | 219.02 ± 2.4
82.77 K, Crystal | 224.04 ± 2.4
84.91 K, Crystal | 229.03 ± 2.5
87.02 K, Crystal | 231.07 ± 2.5
89.13 K, Crystal | 235.38 ± 2.6
91.21 K, Crystal | 238.58 ± 2.3
93.27 K, Crystal | 241.25 ± 2.3
95.35 K, Crystal | 244.45 ± 2.4
97.44 K, Crystal | 249.07 ± 2.4
99.52 K, Crystal | 255.64 ± 2.4
101.56 K, Crystal | 258.48 ± 2.5
103.55 K, Crystal | 262.85 ± 2.5
105.48 K, Crystal | 266.32 ± 2.5
107.37 K, Crystal | 268.87 ± 2.6
109.23 K, Crystal | 272.45 ± 2.6
111.05 K, Crystal | 277.04 ± 2.6
112.84 K, Crystal | 280.4 ± 2.6
114.62 K, Crystal | 283.66 ± 2.7
116.37 K, Crystal | 286.19 ± 2.7
118.1 K, Crystal | 289.83 ± 2.7
119.81 K, Crystal | 291.78 ± 2.7
121.5 K, Crystal | 295.26 ± 2.8
123.18 K, Crystal | 299.07 ± 2.8
124.85 K, Crystal | 302.36 ± 2.8
126.5 K, Crystal | 305.27 ± 2.8
128.13 K, Crystal | 309.31 ± 2.9
129.75 K, Crystal | 313.47 ± 2.9
131.36 K, Crystal | 316.7 ± 2.9
133.51 K, Crystal | 320.85 ± 3
136.04 K, Crystal | 325.43 ± 3
138.47 K, Crystal | 328.35 ± 3
140.85 K, Crystal | 332.7 ± 3.1
143.2 K, Crystal | 334.95 ± 3.1
145.52 K, Crystal | 336.56 ± 3.1
147.82 K, Crystal | 338.15 ± 3.1
150.09 K, Crystal | 340.57 ± 3.1
152.34 K, Crystal | 342.79 ± 3.1
154.57 K, Crystal | 344.26 ± 3.2
156.78 K, Crystal | 346.53 ± 3.2
158.98 K, Crystal | 347.92 ± 3.2
161.16 K, Crystal | 351.38 ± 3.2
163.31 K, Crystal | 355.11 ± 3.2
165.46 K, Crystal | 356.7 ± 3.3
167.59 K, Crystal | 360.16 ± 3.3
169.71 K, Crystal | 363.66 ± 3.3
171.81 K, Crystal | 365.89 ± 3.3
173.91 K, Crystal | 368.25 ± 3.3
175.99 K, Crystal | 370.24 ± 3.4
178.06 K, Crystal | 374.92 ± 3.4
180.1 K, Crystal | 378.77 ± 3.4
182.13 K, Crystal | 381.27 ± 3.5
184.16 K, Crystal | 384.86 ± 3.5
186.15 K, Crystal | 387.43 ± 3.5
188.14 K, Crystal | 391.88 ± 3.5
190.11 K, Crystal | 393.71 ± 3.6
192.06 K, Crystal | 396.41 ± 3.6
194.01 K, Crystal | 400.38 ± 3.6
195.94 K, Crystal | 403.84 ± 3.6
197.86 K, Crystal | 406.78 ± 3.7
199.77 K, Crystal | 410.78 ± 3.7
201.68 K, Crystal | 414.73 ± 3.7
203.58 K, Crystal | 416.01 ± 3.7
205.49 K, Crystal | 418.67 ± 3.7
207.39 K, Crystal | 423.8 ± 3.8
209.27 K, Crystal | 427.28 ± 3.8
213.63 K, Crystal | 430.93 ± 3.8
215.48 K, Crystal | 433.69 ± 3.9
217.33 K, Crystal | 437.16 ± 3.9
219.16 K, Crystal | 440.33 ± 3.9
220.99 K, Crystal | 444.57 ± 4
222.81 K, Crystal | 447.12 ± 4
224.61 K, Crystal | 450.71 ± 4
226.4 K, Crystal | 454.16 ± 4
228.17 K, Crystal | 457.43 ± 4.1
229.91 K, Crystal | 461.64 ± 4.1
231.66 K, Crystal | 464.26 ± 4.1
233.45 K, Crystal | 468.99 ± 4.1
235.26 K, Crystal | 472.26 ± 4.2
237.06 K, Crystal | 475.98 ± 4.2
238.86 K, Crystal | 479.33 ± 4.2
240.62 K, Crystal | 485.92 ± 4.3
242.33 K, Crystal | 489.49 ± 4.3
244.03 K, Crystal | 494.38 ± 4.4
245.76 K, Crystal | 499.28 ± 4.4
248.1 K, Crystal | 502 ± 4.4
250.99 K, Crystal | 505.26 ± 4.4
253.79 K, Crystal | 509.97 ± 4.5
256.52 K, Crystal | 514.43 ± 4.5
259.21 K, Crystal | 517.59 ± 4.5
261.87 K, Crystal | 521.36 ± 4.6
264.51 K, Crystal | 524.15 ± 4.6
267.13 K, Crystal | 529.61 ± 4.6
269.73 K, Crystal | 533.73 ± 4.7
272.3 K, Crystal | 537.73 ± 4.7
274.79 K, Crystal | 541.43 ± 4.7
277.25 K, Crystal | 545.05 ± 4.8
279.67 K, Crystal | 549.95 ± 4.8
282.04 K, Crystal | 553.99 ± 4.8
284.36 K, Crystal | 557.02 ± 4.9
286.64 K, Crystal | 560.07 ± 4.9
288.9 K, Crystal | 564.82 ± 4.9
291.1 K, Crystal | 568.54 ± 4.9
293.23 K, Crystal | 573.27 ± 5
295.4 K, Crystal | 577.71 ± 5
297.6 K, Crystal | 582.62 ± 5.1
299.78 K, Crystal | 586.55 ± 5.1
301.95 K, Crystal | 590.35 ± 5.1
304.05 K, Crystal | 595.77 ± 5.2
306.13 K, Crystal | 598.65 ± 5.2
308.2 K, Crystal | 604.09 ± 5.2
323.46 K, Liquid | 830.56 ± 7
325.28 K, Liquid | 836.77 ± 7.1
327.09 K, Liquid | 842.17 ± 7.1
328.88 K, Liquid | 847.91 ± 7.2
330.65 K, Liquid | 851.32 ± 7.2
332.41 K, Liquid | 855.64 ± 7.2
334.15 K, Liquid | 860.22 ± 7.3
335.87 K, Liquid | 866.7 ± 7.3
337.57 K, Liquid | 869.28 ± 7.4
339.26 K, Liquid | 872.85 ± 7.4
